Key:
[1] = molecular target: T1, Human COX-2 (Homo sapiens, UniProt P35354); test: In vitro COX-2 enzymatic assay (Cayman COX (human) Inhibitor Screening Assay Kit); assay type: biochemical; conditions: human COX-2
T1 construct: purchased Cayman Chemicals 701230
T1 sequence (P35354 18-604): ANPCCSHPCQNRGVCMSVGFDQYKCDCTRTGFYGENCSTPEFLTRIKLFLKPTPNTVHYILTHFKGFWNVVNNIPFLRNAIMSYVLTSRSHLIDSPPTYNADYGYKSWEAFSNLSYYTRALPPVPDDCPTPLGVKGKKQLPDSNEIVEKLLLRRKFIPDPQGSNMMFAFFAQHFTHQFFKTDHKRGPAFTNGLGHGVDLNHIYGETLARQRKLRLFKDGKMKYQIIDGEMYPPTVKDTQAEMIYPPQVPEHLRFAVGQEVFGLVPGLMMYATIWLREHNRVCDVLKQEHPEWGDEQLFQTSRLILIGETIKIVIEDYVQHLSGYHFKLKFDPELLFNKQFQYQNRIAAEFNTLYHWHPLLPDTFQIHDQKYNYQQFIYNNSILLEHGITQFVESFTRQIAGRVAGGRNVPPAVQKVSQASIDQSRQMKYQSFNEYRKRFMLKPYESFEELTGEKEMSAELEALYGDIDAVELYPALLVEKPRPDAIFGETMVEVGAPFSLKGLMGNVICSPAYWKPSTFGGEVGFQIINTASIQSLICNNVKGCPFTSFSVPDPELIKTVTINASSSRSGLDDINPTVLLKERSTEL
Procedure: The ability of the compounds to inhibit COX -2 (IC50 values, µM) was determined by using a “COX (human) Inhibitor Screening Assay Kit” procured from Cayman Chemicals (catalog number 701230). With a slight modification in the method as defined in the reference, the COX-2 inhibition assay was performed. Using the percent conversion of arachidonic acid (AA) to PGH2, the enzyme activity was calculated. By enzyme immunoassay PGF2α, which is produced from PGH2 by reduction with stannous chloride, is calculated. The test compounds’ stock solutions are prepared by dissolving in a minimum amount of DMSO. Human COX-2 (10 µL) in the presence of 10 µL of heme was suspended in 0.1M Tris-HCl buffer (pH 8.0) which contains 2 mM phenol and 5 mM EDTA. This was added to various concentrations of test compounds and, on incubating the solutions at 37 °C for 5 min, 10 µL of AA solution were added. Later, the COX reaction was stopped by adding 1M HCl (50 µL) after 2 min. The intensity of the yellow color which is produced as the product of the enzymatic reaction is determined spectrophotometrically. The percent inhibition was calculated by comparing the compound treated to different control incubations. […] The determinations are done in triplicate and the IC50 (µM) was determined using the concentration–inhibition response curve.
During the initiation of the inflammatory process, the COX enzyme plays a vital role in the progression of inflammatory response. The inflammatory mediators that arise due to the action of COX lead to the chemoattraction of neutrophils, macrophages, eosinophils, etc. […] This was carried out with the help of a COX (human) inhibitor screening assay kit (Item no. 701230) from Cayman chemicals. […] A test substance concentration was considered to be inhibitive when it inhibited human COX-1 or COX-2 by 50%. The compound’s selectivity was measured by its selectivity index values, derived as IC50 (COX-1)/IC50 (COX-2).

[2] = system: A549 (human lung adenocarcinoma) cell line; test: MTT anticancer assay, A549; assay type: cell-based
Procedure: (§1) The in vitro anticancer activity is determined by counting the viable cells that are stained with a vital dye. The MTT technique is an accurate measure of the activity of live cells using mitochondrial dehydrogenases. The target tumor cells A549 (human lung adenocarcinoma) and HEPG2 (human liver) cell lines are procured from the “National Centre for Cell Science” (NCCS, Pune). The sources of reagents like Trypsin, DMEM, Pen strip, and FBS are procured from Himedia. […] The culture medium was prepared, and the MTT assay was performed as per the general procedure described by Mosmann T. et al., [30] and the % viability of the cells was determined.
(§2) The target compounds tested for in vitro COX-2 were further checked for in vitro anti-cancer activity against A549 (lung cancer) and HepG2 (liver cancer) cell lines using MTT growth inhibition assay. The compounds were tested for cytotoxicity against both the cell lines at concentrations of 6.25, 12.5, 25, 50, and 100 µg/mL. […] Using the graph where % cell viability is plotted versus concentration, the IC50 values are determined with the help of the dose–response regression equation.

[3] = molecular target: BSA (bovine albumin serum) (Bos taurus, UniProt P02769); test: Protein (albumin) denaturation assay; conditions: maximum inhibition; compounds tested at 50-200 µg/mL, diclofenac 100 µg/mL
BSA (bovine albumin serum), sequence (P02769 25-607): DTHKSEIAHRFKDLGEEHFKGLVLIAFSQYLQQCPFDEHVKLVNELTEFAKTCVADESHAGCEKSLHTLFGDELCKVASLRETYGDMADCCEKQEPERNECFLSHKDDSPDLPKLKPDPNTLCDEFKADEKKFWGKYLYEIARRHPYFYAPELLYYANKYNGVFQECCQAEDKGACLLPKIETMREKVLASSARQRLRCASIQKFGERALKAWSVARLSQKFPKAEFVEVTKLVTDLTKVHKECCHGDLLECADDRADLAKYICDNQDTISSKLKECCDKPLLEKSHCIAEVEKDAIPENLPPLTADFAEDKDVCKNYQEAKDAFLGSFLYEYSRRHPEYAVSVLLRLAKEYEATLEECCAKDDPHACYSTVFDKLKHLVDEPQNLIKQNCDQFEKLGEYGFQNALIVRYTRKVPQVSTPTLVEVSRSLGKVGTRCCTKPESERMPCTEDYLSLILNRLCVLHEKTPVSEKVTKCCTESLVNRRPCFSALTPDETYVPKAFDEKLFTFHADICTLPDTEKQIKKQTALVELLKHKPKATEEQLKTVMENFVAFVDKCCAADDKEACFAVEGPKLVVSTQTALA
Procedure: Mizushima and Kobayashi’s technique was employed for the determination of in vitro anti-inflammatory activity by the protein denaturation method for the synthesized compounds. […] Then, a mixture of 500µL of 1% aqueous solution of BSA (bovine albumin serum) and 1.4 mL of phosphate buffer saline (PBS, pH 7.4) was added to 100 µL of varying concentrations of the synthesized compounds 50, 100, and 200 µg/mL. […] The mixtures are then incubated for 15 min at 37 °C and then heated for 10 min at 60 °C. The absorbance was measured at 660nm (SHIMADZU, UV-1800 Spectrophotometer) upon cooling. […] The entire experiment was done in triplicate, and the average was calculated. % inhibition of protein denaturation was calculated by: % inhibition=Absorbance of Control−Absorbance of Sample/Absorbance of Control×100
The anti-inflammatory capacity of the target compound was evaluated using the protein denaturation assay.

[4] = system: HEPG2 (human liver) cell line; test: MTT anticancer assay, HepG2; assay type: cell-based
Procedure: as §1, §2

## NS(=O)(=O)c1ccc(-n2nc(C(=O)NN=Cc3ccc(Cl)cc3O)cc2-c2ccc(Br)cc2)cc1 [Compound T9, 4-(5-(4-bromophenyl)-3-(2-(4-chloro-2-hydroxybenzylidene) hydrazine-1-carbonyl)-1H-pyrazol-1-yl) benzenesulfonamide]
[1]
  IC50: 3.5 µM
[2]; A549, 6.25 µg/ml
  % cell viability: 91.72%
[2]; A549, 12.5 µg/ml
  % cell viability: 84.82%
[2]; A549, 25 µg/ml
  % cell viability: 76.64%
[2]; A549, 50 µg/ml
  % cell viability: 66.94%
[2]; A549, 100 µg/ml
  % cell viability: 54.57%
[2]; MTT, A549
  IC50 against A549: > 100 µM
[3]
  % inhibition of albumin denaturation: 67.77%
[4]; HepG2, 6.25 µg/ml
  % cell viability: 85.46%
[4]; HepG2, 12.5 µg/ml
  % cell viability: 84.90%
[4]; HepG2, 25 µg/ml
  % cell viability: 79.30%
[4]; HepG2, 50 µg/ml
  % cell viability: 67.24%
[4]; HepG2, 100 µg/ml
  % cell viability: 54.42%
[4]; MTT, HepG2
  IC50 against HepG2: > 100 µM

## Cc1cc(C=NNC(=O)c2cc(-c3ccc(Cl)cc3)n(-c3ccc(S(N)(=O)=O)cc3)n2)cc(C)c1OCc1ccccc1 [Compound T6, 4-(3-(2-(4-(benzyloxy)-3,5-dimethylbenzylidene) hydrazine-1-carbonyl)-5-(4-chlorophenyl)-1H-pyrazol-1-yl)benzenesulfonamide]
[1]
  IC50: 2.54 µM
[2]; Homo sapiens, A549, 6.25 µg/ml
  viability at 6.25 µg/mL: 97.7%
[2]; Homo sapiens, A549, 12.5 µg/ml
  viability at 12.5 µg/mL: 87%
[2]; Homo sapiens, A549, 25 µg/ml
  viability at 25 µg/mL: 78.8%
[2]; Homo sapiens, A549, 50 µg/ml
  viability at 50 µg/mL: 74.6%
[2]; Homo sapiens, A549, 100 µg/ml
  viability at 100 µg/mL: 63.4%
[2]; Homo sapiens, MTT, A549, read-out: IC50 against A549
  IC50: > 100 µg/mL
[3]
  % inhibition of albumin denaturation: 61.05%
[4]; HepG2
  anti-cancer activity against HepG2 cell line (in words): active
[4]; Homo sapiens, HepG2, 6.25 µg/ml
  viability at 6.25 µg/mL: 24.1%
[4]; Homo sapiens, HepG2, 12.5 µg/ml
  viability at 12.5 µg/mL: 11%
[4]; Homo sapiens, HepG2, 25 µg/ml
  viability at 25 µg/mL: 2.99%
[4]; Homo sapiens, HepG2, 50 µg/ml
  viability at 50 µg/mL: 2.87%
[4]; Homo sapiens, HepG2, 100 µg/ml
  viability at 100 µg/mL: 2.62%
[4]; Homo sapiens, MTT, HepG2, read-out: IC50 against HepG2
  IC50: < 6.25 µg/mL

## NS(=O)(=O)c1ccc(-n2nc(C(=O)NN=Cc3ccc(Cl)cc3O)cc2-c2ccccc2)cc1 [Compound T10, 4-(3-(2-(4-chloro-2-hydroxybenzylidene) hydrazine-1-carbonyl)-5-phenyl-1H pyrazol-1-yl) benzenesulfonamide]
[3]
  % inhibition of albumin denaturation: less than 50%

## NS(=O)(=O)c1ccc(-n2nc(C(=O)NN=Cc3ccc(Oc4ccccc4)cc3)cc2-c2ccc(Cl)cc2)cc1 [Compound T8, 4-(5-(4-chlorophenyl)-3-(2-(4-phenoxybenzylidene) hydrazine-1-carbonyl)-1H-pyrazol-1-yl) benzenesulfonamide]
[3]
  % inhibition of albumin denaturation: less than 50%

## NS(=O)(=O)c1ccc(-n2nc(C(=O)NN=Cc3ccc(Oc4ccccc4)cc3)cc2-c2ccc(Br)cc2)cc1 [Compound T7, 4-(5-(4-bromophenyl)-3-(2-(4-phenoxybenzylidene) hydrazine-1-carbonyl)-1H-pyrazol-1-yl) benzenesulfonamide]
[3]
  % inhibition of albumin denaturation: less than 50%

## NS(=O)(=O)c1ccc(-n2nc(C(=O)NN=Cc3cccc(Oc4ccccc4)c3)cc2-c2ccc(Br)cc2)cc1 [Compound T4, 4-(5-(4-bromophenyl)-3-(2-(3-phenoxybenzylidene) hydrazine-1-carbonyl)-1H-pyrazol-1-yl) benzenesulfonamide]
[3]
  % inhibition of albumin denaturation: less than 50%

## COc1ccc(-c2cc(C(=O)NN=Cc3cccc(Oc4ccccc4)c3)nn2-c2ccc(S(N)(=O)=O)cc2)cc1 [Compound T1, 4-(5-(4-methoxyphenyl)-3-(2-(3-phenoxybenzylidene) hydrazine-1-carbonyl)-1H-pyrazol-1-yl) benzenesulfonamide]
[3]
  % inhibition of albumin denaturation: less than 50%

## COc1ccc(-c2cc(C(=O)NN=Cc3ccc(Oc4ccccc4)cc3)nn2-c2ccc(S(N)(=O)=O)cc2)cc1 [Compound T2, 4-(5-(4-methoxyphenyl)-3-(2-(4-phenoxybenzylidene) hydrazine-1-carbonyl)-1H-pyrazol-1-yl) benzenesulfonamide]
[1]
  IC50: 12 µM
[2]; A549
  anti-cancer activity against A549 cell lines (in words): active
[2]; A549, 6.25 µg/ml
  % cell viability: 95.63%
[2]; A549, 12.5 µg/ml
  % cell viability: 81.83%
[2]; A549, 25 µg/ml
  % cell viability: 54.02%
[2]; A549, 50 µg/ml
  % cell viability: 33.98%
[2]; A549, 100 µg/ml
  % cell viability: 18.25%
[2]; A549 cell lines
  concentration at which compound was effective (from % inhibitory values): 25 µg/mL
[2]; MTT, A549
  IC50 against A549: 31.49 µM
[3]
  % inhibition of albumin denaturation: 81.77%
[4]; HepG2, 6.25 µg/ml
  % cell viability: 78.42%
[4]; HepG2, 12.5 µg/ml
  % cell viability: 77.90%
[4]; HepG2, 25 µg/ml
  % cell viability: 71.82%
[4]; HepG2, 50 µg/ml
  % cell viability: 67.10%
[4]; HepG2, 100 µg/ml
  % cell viability: 64.39%
[4]; MTT, HepG2
  IC50 against HepG2: > 100 µM

Reference: paper PMC11048033, “Dual Anti-Inflammatory and Anticancer Activity of Novel 1,5-Diaryl Pyrazole Derivatives: Molecular Modeling, Synthesis, In Vitro Activity, and Dynamics Study” (Biomedicines, 2024)
